From the OligoGym collection come the findings set out here.

Oligonucleotides are written 5' to 3', each unit as a sugar letter and its base; * is a phosphorothioate linkage, no mark a phosphodiester; rarer units and linkages stand in square brackets, end groups in braces. Plain capitals give the bases only. Oligonucleotides are given in HELM: sugar(base)linkage, 5' to 3'; d 2'-deoxyribose, r ribose, m 2'-O-methylribose, p phosphate. ss, as = sense and antisense strand; d = 2'-deoxy (DNA); r = 2'-OH (RNA)

One data set addresses SOST. The experiment in a line: reporter assay of Huesken 2005. The conditions noted are these: siRNA. (In general: Reporter assays use an easily measured gene product as a stand-in for the process of interest.)
Another data set has as its target UBE2M. The experiment in a line: reporter assay of Huesken 2005. The conditions noted are these: siRNA.
Further: test concentration or dose not given here.

Turning to “RNA1{r(C)p.r(A)p.r(A)p.r(G)p.r(U)p.r(G)p.r(C)p.r(A)p.r(A)p.r(G)p.r(C)p.r(G)p.r(C)p.r(C)p.r(U)p.r(C)p.r(A)p.r(C)p.r(C)p.d(T)p.d(T)}|RNA2{r(G)p.r(G)p.r(U)p.r(G)p.r(A)p.r(G)p.r(G)p.r(C)p.r(G)p.r(C)p.r(U)p.r(U)p.r(G)p.r(C)p.r(A)p.r(C)p.r(U)p.r(U)p.r(G)p.d(C)p.d(A)}$$$RNA1{StrandType:ss}|RNA2{StrandType:as}$”, the normalised inhibition (eCFP-eYFP dual reporter) with SOST came to 68.8%. As for “RNA1{r(G)p.r(A)p.r(A)p.r(C)p.r(G)p.r(G)p.r(A)p.r(G)p.r(G)p.r(G)p.r(C)p.r(G)p.r(G)p.r(C)p.r(C)p.r(U)p.r(C)p.r(C)p.r(C)p.d(T)p.d(T)}|RNA2{r(G)p.r(G)p.r(G)p.r(A)p.r(G)p.r(G)p.r(C)p.r(C)p.r(G)p.r(C)p.r(C)p.r(C)p.r(U)p.r(C)p.r(C)p.r(G)p.r(U)p.r(U)p.r(C)p.d(T)p.d(C)}$$$RNA1{StrandType:ss}|RNA2{StrandType:as}$”, in the data set with SOST, the normalised inhibition (eCFP-eYFP dual reporter) is 52.6%. “RNA1{r(G)p.r(C)p.r(G)p.r(C)p.r(G)p.r(C)p.r(A)p.r(A)p.r(G)p.r(G)p.r(U)p.r(G)p.r(C)p.r(G)p.r(C)p.r(C)p.r(U)p.r(G)p.r(G)p.d(T)p.d(T)}|RNA2{r(C)p.r(C)p.r(A)p.r(G)p.r(G)p.r(C)p.r(G)p.r(C)p.r(A)p.r(C)p.r(C)p.r(U)p.r(U)p.r(G)p.r(C)p.r(G)p.r(C)p.r(G)p.r(C)p.d(G)p.d(C)}$$$RNA1{StrandType:ss}|RNA2{StrandType:as}$”: the normalised inhibition (eCFP-eYFP dual reporter) with SOST was found to be 41.3%. As for “RNA1{r(C)p.r(C)p.r(G)p.r(C)p.r(A)p.r(G)p.r(C)p.r(G)p.r(C)p.r(C)p.r(A)p.r(A)p.r(G)p.r(C)p.r(C)p.r(G)p.r(G)p.r(U)p.r(C)p.d(T)p.d(T)}|RNA2{r(G)p.r(A)p.r(C)p.r(C)p.r(G)p.r(G)p.r(C)p.r(U)p.r(U)p.r(G)p.r(G)p.r(C)p.r(G)p.r(C)p.r(U)p.r(G)p.r(C)p.r(G)p.r(G)p.d(C)p.d(A)}$$$RNA1{StrandType:ss}|RNA2{StrandType:as}$”, the normalised inhibition (eCFP-eYFP dual reporter) with SOST is 51.3%. Still for that read-out and setting: with “RNA1{r(C)p.r(G)p.r(G)p.r(C)p.r(G)p.r(C)p.r(G)p.r(C)p.r(C)p.r(U)p.r(G)p.r(C)p.r(U)p.r(G)p.r(C)p.r(C)p.r(C)p.r(A)p.r(A)p.d(T)p.d(T)}|RNA2{r(U)p.r(U)p.r(G)p.r(G)p.r(G)p.r(C)p.r(A)p.r(G)p.r(C)p.r(A)p.r(G)p.r(G)p.r(C)p.r(G)p.r(C)p.r(G)p.r(C)p.r(C)p.r(G)p.d(G)p.d(G)}$$$RNA1{StrandType:ss}|RNA2{StrandType:as}$” the figure was 84.6%; with “RNA1{r(A)p.r(C)p.r(C)p.r(G)p.r(G)p.r(A)p.r(G)p.r(C)p.r(U)p.r(G)p.r(G)p.r(A)p.r(G)p.r(A)p.r(A)p.r(C)p.r(A)p.r(A)p.r(C)p.d(T)p.d(T)}|RNA2{r(G)p.r(U)p.r(U)p.r(G)p.r(U)p.r(U)p.r(C)p.r(U)p.r(C)p.r(C)p.r(A)p.r(G)p.r(C)p.r(U)p.r(C)p.r(C)p.r(G)p.r(G)p.r(U)p.d(G)p.d(G)}$$$RNA1{StrandType:ss}|RNA2{StrandType:as}$”, 83.3%.

“RNA1{r(C)p.r(G)p.r(C)p.r(C)p.r(U)p.r(G)p.r(C)p.r(U)p.r(G)p.r(C)p.r(C)p.r(C)p.r(A)p.r(A)p.r(C)p.r(G)p.r(C)p.r(C)p.r(A)p.d(T)p.d(T)}|RNA2{r(U)p.r(G)p.r(G)p.r(C)p.r(G)p.r(U)p.r(U)p.r(G)p.r(G)p.r(G)p.r(C)p.r(A)p.r(G)p.r(C)p.r(A)p.r(G)p.r(G)p.r(C)p.r(G)p.d(C)p.d(G)}$$$RNA1{StrandType:ss}|RNA2{StrandType:as}$” came in with a normalised inhibition (eCFP-eYFP dual reporter) in the data set with SOST of 64.6%. The substance “RNA1{r(U)p.r(A)p.r(G)p.r(U)p.r(G)p.r(G)p.r(A)p.r(G)p.r(G)p.r(G)p.r(C)p.r(C)p.r(A)p.r(G)p.r(G)p.r(G)p.r(G)p.r(U)p.r(G)p.d(T)p.d(T)}|RNA2{r(C)p.r(A)p.r(C)p.r(C)p.r(C)p.r(C)p.r(U)p.r(G)p.r(G)p.r(C)p.r(C)p.r(C)p.r(U)p.r(C)p.r(C)p.r(A)p.r(C)p.r(U)p.r(A)p.d(C)p.d(A)}$$$RNA1{StrandType:ss}|RNA2{StrandType:as}$” yielded a normalised inhibition (eCFP-eYFP dual reporter) with SOST of 72%.

Substance “RNA1{r(G)p.r(C)p.r(U)p.r(G)p.r(C)p.r(A)p.r(C)p.r(U)p.r(U)p.r(C)p.r(A)p.r(C)p.r(C)p.r(C)p.r(G)p.r(C)p.r(U)p.r(A)p.r(C)p.d(T)p.d(T)}|RNA2{r(G)p.r(U)p.r(A)p.r(G)p.r(C)p.r(G)p.r(G)p.r(G)p.r(U)p.r(G)p.r(A)p.r(A)p.r(G)p.r(U)p.r(G)p.r(C)p.r(A)p.r(G)p.r(C)p.d(T)p.d(C)}$$$RNA1{StrandType:ss}|RNA2{StrandType:as}$” registered a normalised inhibition (eCFP-eYFP dual reporter) with SOST of 75.4%. For the substance “RNA1{r(C)p.r(C)p.r(C)p.r(G)p.r(C)p.r(U)p.r(A)p.r(C)p.r(G)p.r(U)p.r(G)p.r(A)p.r(C)p.r(C)p.r(G)p.r(A)p.r(U)p.r(G)p.r(G)p.d(T)p.d(T)}|RNA2{r(C)p.r(C)p.r(A)p.r(U)p.r(C)p.r(G)p.r(G)p.r(U)p.r(C)p.r(A)p.r(C)p.r(G)p.r(U)p.r(A)p.r(G)p.r(C)p.r(G)p.r(G)p.r(G)p.d(T)p.d(G)}$$$RNA1{StrandType:ss}|RNA2{StrandType:as}$”, in the data set with SOST, the normalised inhibition (eCFP-eYFP dual reporter) came out at 77.6%. In the case of “sense rUrCrUrUrCrUrUrGrGrArGrCrCrCrArArCrCrCdTdT / antisense rGrGrGrUrUrGrGrGrCrUrCrCrArArGrArArGrAdGdA”, the normalised inhibition (eCFP-eYFP dual reporter) with UBE2M is 56.1%. “sense rUrCrArUrCrUrGrUrCrCrUrGrArUrGrArGrGrGdTdT / antisense rCrCrCrUrCrArUrCrArGrGrArCrArGrArUrGrAdCdC” yielded a normalised inhibition (eCFP-eYFP dual reporter) with UBE2M of 57.5%. As to “sense rCrUrUrCrArArGrCrUrGrGrUrCrArUrCrUrGrUdTdT / antisense rArCrArGrArUrGrArCrCrArGrCrUrUrGrArArGdTdT”, in the data set with UBE2M, the normalised inhibition (eCFP-eYFP dual reporter) is 77%. For “sense rCrGrArGrCrUrGrArArCrCrUrGrCrCrCrArArGdTdT / antisense rCrUrUrGrGrGrCrArGrGrUrUrCrArGrCrUrCrGdTdT”, the normalised inhibition (eCFP-eYFP dual reporter) with UBE2M turned out to be 71.9%. In the case of “sense rArCrGrUrCrUrGrCrCrUrCrArArCrArUrCrCrUdTdT / antisense rArGrGrArUrGrUrUrGrArGrGrCrArGrArCrGrUdTdG”, the normalised inhibition (eCFP-eYFP dual reporter) with UBE2M turned out to be 80.4%. “sense rUrCrArCrCrCrCrArArCrArUrUrGrArCrCrUrCdTdT / antisense rGrArGrGrUrCrArArUrGrUrUrGrGrGrGrUrGrAdTdA” came in with a normalised inhibition (eCFP-eYFP dual reporter) with UBE2M of 65.4%. On the same count and under the same terms, in the case of “sense rGrArGrGrArGrUrCrGrGrCrGrGrGrCrGrGrCrAdTdT / antisense rUrGrCrCrGrCrCrCrGrCrCrGrArCrUrCrCrUrCdCdT” it was 59.9%; in that of “sense rGrGrUrGrArArGrUrGrUrGrArGrArCrArArUrGdTdT / antisense rCrArUrUrGrUrCrUrCrArCrArCrUrUrCrArCrCdTdT”, 81.7%. On the same count and under the same terms, with “sense rGrUrUrCrArGrUrUrUrUrArArGrGrUrGrGrGrCdTdT / antisense rGrCrCrCrArCrCrUrUrArArArArCrUrGrArArCdAdC” the figure was 53.9%; with “sense rCrGrGrCrGrGrCrGrCrArGrCrUrGrCrGrGrArUdTdT / antisense rArUrCrCrGrCrArGrCrUrGrCrGrCrCrGrCrCrGdAdC”, 69.9%; with “sense rUrGrCrArGrArArCrArArCrCrGrGrCrGrGrCrUdTdT / antisense rArGrCrCrGrCrCrGrGrUrUrGrUrUrCrUrGrCrAdGdG”, 67.6%. Substance “sense rArUrCrCrArGrArArGrGrArCrArUrArArArCrGdTdT / antisense rCrGrUrUrUrArUrGrUrCrCrUrUrCrUrGrGrArUdCdC” gave a normalised inhibition (eCFP-eYFP dual reporter) with UBE2M of 56.4%. As for “sense rUrArArUrUrUrArUrGrGrCrCrUrGrCrArGrUrAdTdT / antisense rUrArCrUrGrCrArGrGrCrCrArUrArArArUrUrAdTdG”, the normalised inhibition (eCFP-eYFP dual reporter) with UBE2M stood at 67%. Still for that read-out and setting: with “sense rGrGrCrCrUrGrCrArGrUrArUrCrUrCrUrUrCrUdTdT / antisense rArGrArArGrArGrArUrArCrUrGrCrArGrGrCrCdAdT” the figure was 80.2%. On the same count and under the same terms, with “sense rCrUrUrCrUrCrArGrArUrCrCrArGrArCrGrArCdTdT / antisense rGrUrCrGrUrCrUrGrGrArUrCrUrGrArGrArArGdCdT” the figure was 65.6%.

In the data set with UBE2M, “sense rGrGrGrCrGrGrCrArCrCrArArGrGrGrCrArGrCdTdT / antisense rGrCrUrGrCrCrCrUrUrGrGrUrGrCrCrGrCrCrCdGdC” showed a normalised inhibition (eCFP-eYFP dual reporter) of 64.9%. Still for that read-out and setting: with “sense rCrArUrGrCrGrGrGrGrUrGrGrCrUrArCrArUrCdTdT / antisense rGrArUrGrUrArGrCrCrArCrCrCrCrGrCrArUrGdGdA” the figure was 67.7%.

“sense rCrUrUrCrUrArCrArArGrArGrUrGrGrGrArArGdTdT / antisense rCrUrUrCrCrCrArCrUrCrUrUrGrUrArGrArArGdCdC” had a normalised inhibition (eCFP-eYFP dual reporter) in the data set with UBE2M of 75.9%.

“sense rGrUrCrCrUrUrArCrGrArUrArArArCrUrCrCrAdTdT / antisense rUrGrGrArGrUrUrUrArUrCrGrUrArArGrGrArCdTdG” returned a normalised inhibition (eCFP-eYFP dual reporter) with UBE2M of 76.7%.

“sense rGrUrGrGrGrCrCrArGrGrGrUrUrArCrCrCrGrCdTdT / antisense rGrCrGrGrGrUrArArCrCrCrUrGrGrCrCrCrArCdCdT” came in with a normalised inhibition (eCFP-eYFP dual reporter) with UBE2M of 56.4%. Still for that read-out and setting: with “sense rArGrUrCrGrGrCrGrGrGrCrGrGrCrArCrCrArAdTdT / antisense rUrUrGrGrUrGrCrCrGrCrCrCrGrCrCrGrArCrUdCdC” the figure was 73.6%; with “sense rUrUrCrUrArCrArArGrArGrUrGrGrGrArArGrUdTdT / antisense rArCrUrUrCrCrCrArCrUrCrUrUrGrUrArGrArAdGdC”, 68.9%; with “sense rArUrGrGrUrCrUrArUrCrArCrCrCrCrArArCrAdTdT / antisense rUrGrUrUrGrGrGrGrUrGrArUrArGrArCrCrArUdTdG”, 71.3%.
